Among the data in US20250122225A1, “MASP-2 INHIBITORS AND METHODS OF USE” (Omeros Corporation, priority 2023, published 2025) are Ki and IC50 values, retold here.

Counter-ions that a name gives are not always drawn. A value given as a limit tells only on which side of the number the result lay.

Common to all, as to format: biochemical
Experiment [1] concerns the target T1, MASP-2 (CCP1-CCP2-SP) (Homo sapiens, UniProt O00187).
T1 construct: 15 μL of Enzyme MASP-2 (CCP1-CCP2-SP) in Assay Buffer
Briefly: Enzymatic assay for MASP-2 inhibitory activity (fluorogenic substrate). The essentials:
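Fluorescence was normalized between no-enzyme and DMSO-only controls to derive % activity, with IC50 taken as equivalent to Ki except for tight-binding inhibitors. Reactions ran 20 min at room temperature in HEPES pH 7.4/NaCl/Tween 20 buffer, using the C2-derived fluorogenic substrate, before acetic acid stop.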

Experiment [2] concerns the target T2, human α-thrombin (Homo sapiens, UniProt P00734).
T2 construct: enzyme (human α-thrombin (BioPharm® Lab.)) in assay buffer; purchased BioPharm® Lab
Briefly: Enzymatic assay for thrombin (fluorogenic peptide substrate Boc-VPR-AMC). The essentials:
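Assay conditions kept the reaction linear in time, enzyme and substrate, so IC50 approximated Ki apart from tight- or slow-binding cases. Boc-VPR-AMC cleavage by human α-thrombin proceeded 20 min at room temperature in Hepes pH 7.4/NaCl/Tween 20 buffer, then was acid-quenched and read by fluorescence.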

Experiment [3] relates to Lectin Pathway Activation in human serum. Briefly: Lectin Pathway Activation (LPA) assay in human serum, mannan-coated ELISA plate, C4c detection. Particulars: 1% human serum, read-out: LPA Functional Activity (IC50). On the procedure: Lectin Pathway Activation (LPA) Assay in Human Serum Treated with Compounds
A microtiter ELISA plate was coated with mannan (1 mg/ml) from Saccharomyces cerevisiae (Sigma-Aldrich®, M7504) overnight at 4° C. in coating buffer [33.3 mM Na2CO3, 166.67 mM NaHCO3]. The plate was blocked with 5% bovine serum albumin (BSA) (Sigma-Aldrich®, A3294) in 1×PBST [Phosphate Buffered Saline Solution (1.06 mM KH2PO4, 155.2 mM NaCl, 2.97 mM Na2HPO4^−·7H2O, pH 7.4), 0.05% Tween-20] shaking for 2 hours at room temperature. 1% human serum was incubated with serial dilutions of small compounds in 1× LPA+ Buffer [20 mM Hepes, pH 7.4, 140 mM NaCl, 2 mM MgCl2 (6H2O)] and incubated for 5 minutes at room temperature. 40 μL of this mixture was then added to the plate, and the plate was incubated at room temperature for 55 mins. Next, the reaction was stopped by adding 20 μL of EDTA Stop Solution [20 mM Hepes, pH7.4, 140 mM NaCl, 150 mM EDTA] to the plate. The plate was then washed 10× in wash buffer 1×PBST; 40 μL of Rabbit Anti Human C4c Antibody [Dako®, Q0369] diluted 1:20000 in wash buffer was added; and the plate was incubated shaking at room temperature for 30 minutes. The plate was washed [5× times]; 40 μL of Goat Anti-rabbit Antibody-HRP Conjugate [Southern Biotech®, 4050-05] diluted 1:10000 in wash buffer was added; and the plate was incubated shaking at room temperature for 30 minutes. After that, the plate was washed five times; 40 µL/well of Amplex® UltraRed Substrate Solution [1× LPA Buffer, 10 mM Amplex® UltraRed Stock Solution [Thermo Fisher Sci.®, A36006], 3% stabilized hydrogen peroxide [Sigma Aldrich®, 216763] was added; the plate was incubated at room temperature for 16 minutes; the reaction was stopped by adding 8 µL/well of Amplex® UltraRed Stop Solution [Thermo Fisher Sci.®, A33855] in 100% EtOH. Finally, the plate was read for fluorescence at Ex: 550 nm, Em: 580 nm on the i3x Microplate Reader.

T1 sequence (O00187 445-686 limits assumed): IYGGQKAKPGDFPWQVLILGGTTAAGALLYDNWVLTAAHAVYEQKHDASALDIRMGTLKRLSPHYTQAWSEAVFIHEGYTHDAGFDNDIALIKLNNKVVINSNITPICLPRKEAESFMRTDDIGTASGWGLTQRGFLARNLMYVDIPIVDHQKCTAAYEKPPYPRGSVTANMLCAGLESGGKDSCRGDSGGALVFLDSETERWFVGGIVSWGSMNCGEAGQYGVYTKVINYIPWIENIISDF
T1 sequence (O00187 287-444 partner limits assumed): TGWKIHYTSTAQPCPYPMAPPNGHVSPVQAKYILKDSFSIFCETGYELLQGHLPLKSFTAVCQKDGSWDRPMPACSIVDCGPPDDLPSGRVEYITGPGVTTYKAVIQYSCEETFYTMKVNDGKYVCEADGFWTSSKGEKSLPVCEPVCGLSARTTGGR

Consider `[2H]C([2H])([2H])c1nc(N)ccc1CNC(=O)[C@@H]1CCc2cnc(NCc3cc(C)cc(OC)c3)c(=O)n21` [Compound 226, (S)—N-((6-amino-2-(methyl-d3)pyridin-3-yl)methyl)-3-((3-methoxy-5-methylbenzyl)amino)-4-oxo-4,6,7,8-tetrahydropyrrolo[1,2-a]pyrazine-6-carboxamide], for which the Ki in experiment [1] and in experiment [2] was < 500 nM each time. The IC50 in experiment [3] was < 50 nM.
As for `CC1(C)C[C@@H](C(=O)NCc2cc3cnccc3[nH]2)n2c1cnc(NCc1ccccc1)c2=O` [Compound 228, trifluoroacetate], the Ki is < 500 nM in experiment [1] and 2500 to 10000 nM in experiment [2]. In addition, the IC50 in experiment [3] was < 50 nM.
Taken in the same sequence, the figures for `C[C@@H]1C[C@@H](C(=O)NCc2cc3cnccc3[nH]2)n2c1c(Cl)nc(NCc1ccccc1)c2=O` [Compound 230, (6S,8R)-N-((1H-pyrrolo[3,2-c]pyridin-2-yl)methyl)-3-(benzylamino)-1-chloro-8-methyl-4-oxo-4,6,7,8-tetrahydropyrrolo[1,2-a]pyrazine-6-carboxamide trifluoroacetate] were < 500 nM, 500 to 2500 nM and 50 to 500 nM.
As for `O=C(NCc1cc2cnccc2[nH]1)[C@@H]1CCc2c(Cl)nc(NCc3cnccn3)c(=O)n21` [Compound 239], the results for the Ki in experiment [1] and in experiment [2] were < 500 nM and > 25000 nM, respectively. For the same molecule, the IC50 in experiment [3] was 50 to 500 nM.
Taken in the same sequence, the figures for `Cc1nc(N)ccc1CNC(=O)[C@@H]1CCc2c(Cl)nc(NCCc3cccnc3)c(=O)n21` [Compound 240] were < 500 nM, < 500 nM and 50 to 500 nM.
The corresponding values for `O=C(NCc1cc2c(s1)CNC2)[C@@H]1CCc2cnc(N[C@H]3CCc4ccc(-c5ccccc5)cc43)c(=O)n21` [Compound 257] are < 500 nM, < 500 nM and < 50 nM.
The corresponding values for `O=C(NCc1cc2c(s1)CNC2)[C@@H]1CCc2cnc(N[C@@H](c3ccccc3)C3CC3)c(=O)n21` [Compound 259, (S)-3-(((R)-cyclopropyl(phenyl)methyl)amino)-N-((5,6-dihydro-4H-thieno[2,3-c]pyrrol-2-yl)methyl)-4-oxo-4,6,7,8-tetrahydropyrrolo[1,2-a]pyrazine-6-carboxamide trifluoroacetate] are < 500 nM, < 500 nM and < 50 nM.
Take `C[C@@H](CNc1ncc2n(c1=O)[C@H](C(=O)NCc1cc3c(s1)CNC3)CC2)c1ccccc1` [Compound 276, (S)-N-((5,6-dihydro-4H-thieno[2,3-c]pyrrol-2-yl)methyl)-4-oxo-3-(((R)-2-phenylpropyl)amino)-4,6,7,8-tetrahydropyrrolo[1,2-a]pyrazine-6-carboxamide trifluoroacetate]: the Ki in experiment [1] and in experiment [2] was < 500 nM throughout. For the same molecule, the IC50 in experiment [3] is < 50 nM.
Take `CC[C@@H](Nc1ncc2n(c1=O)[C@H](C(=O)N[C@H](C)c1cc3c(s1)CNC3)CC2)c1ccccc1` [Compound 277]: the Ki in experiment [1] was < 500 nM; in experiment [2], 500 to 2500 nM. In experiment [3], the IC50 lay in the range of 50 to 500 nM.

For orientation: Ki means the dissociation constant of the complex between target and ligand, obtained from inhibition or displacement. Read a high Ki as lower affinity. The term IC50 denotes the concentration that gives 50% inhibition.
